Measurements as given in patent publication US6423703B1, “Use of a porphyrin for producing a medicine reducing the number of eosinophils” (Sephra S.A.R.L., priority 1998, dated 2002).
“Also recorded” adds a separate entry of the source. Like-named read-outs stand apart in the source and are kept apart here.

Tests used:
neonatal jaundice [1] = conditions: Rodgers et al, 1996; i.p. 25 mg/kg; 21 days; new-born rats; cited from earlier work
[2] = Hintz et al, 1990; i.p. 37 mg/kg; 12 hrs; new-born rats; cited from earlier work
eosinophils [3] = experiment: TUNEL method, DNA fragmentation in situ in eosinophils; format: cell-based, human; conditions: IL-5 (lpM) and ZnPP-IX (10 μM); 48 hours
Experimental: The TUNEL method makes it possible to visualise the apoptotic nuclei containing the fragmented DNA. Its assumption rests on the enzymatic fixation of a fluorescent marker (Fluoresceine-12-dUTP) at the free extremities of the DNA (3′-OH DNA). This technique consists of the cells in each well being cytocentrifuged then fixed by formaldehyde solution at 4% (25 min at 4° C.). After washing, the preparations are made permeable by a solution of Triton X-100 0.2% (5 min at 20° C.). The cells are incubated (1 hr at 37° C.) in the presence of a solution containing fluoresceine-12-dUTP and the enzyme TdT (terminal deoxynucleotidal transferase). The reaction is […] in a stopping solution. After mounting under a coverglass, the preparation is visualized under the fluorescence microscope (Apoptosis Detection System Fluorescein. Promega, Madison, Wis., USA).
In the presence of IL-5 and the control solution, there is no marking of the nuclei.

[4] = tested on: hyperbilirubinemia due to iatrogenic hemolysis; conditions: Vreman et al, 1990; i.v. 25 mg/kg; 24 hrs; Rhesus monkeys (new-born); cited from earlier work
steroidogenesis = conditions: Trakshel et al, 1992; s.c. 31 mg/kg (2x −4j); 7 days; rats; cited from earlier work
neonatal jaundice [5] = conditions: Qato et Maines, 1985; s.c. 25 mg/kg; 12 days; Rhesus monkeys and cynomolgus; cited from earlier work
human eosinophils = experiment: Apoptosis and survival of purified human eosinophils in culture (cytology, blue trypan); format: cell-based; conditions: for Apoptosis of eosinophils (percentage of apoptotic eosinophils): ZnPP-IX 10 μM, IL-5 10 pM where present, RPMI 1640, average of three experiments; for Number of apoptotic cells: in the presence of IL-5
Experimental: A leukocyte-rich suspension is obtained after sedimentation of whole blood, anticoagulated in the presence of dextran T500 (4.5%). 35 ml of aliquots are added to 15 mi of Ficoll. After centrifugation (30 min, 1000×g) the mononucleated cells at the interface are eliminated. The pellet which contains neutrophils, eosinophils and the corpuscles is washed and subjected to an osmotic shock in order to eliminate the corpuscles. The magnetic cellular separation system (MACS; Miltenyi Biotec) is used to purify the eosinophils by negative selection [Hansel et al, 1991, J. Immunol. Meth. 145: 105-110]. Magnetic particles anti-CD16 (1 μl/1×10^6 cells) are added to the suspension of neutrophils and eosinophils at 4° C. and kept at this temperature for 40 minutes with several placement gain in solution. The suspension is then added at the summit of the separation column in the presence of a magnetic field, the tap open at the base. 30 ml of PBS/FCS is passed through the column and the effluent is recovered. The magnetically marked cells (neutrophils) remain in the column; the unmarked cells (eosinophils) are recovered in the effluent and washed. PBS=Phosphate buffered saline FCS=Foetal calf serum
The freshly purified eosinophils are again placed in suspension (1.5-3×10^5 cells per ml) in RPMI 1640 (Gibco BRL) supplemented with 0.1 mM non essential amino acids, 100 U/ml of penicillin, 10 μg of streptomycine, 10 mM of HEPES, 2 mM of glutamine and 10% FCS. The aliquots of 160 μl of cellular suspension are deposited in each of the wells of a 96 well tray (Costar) containing 20 μl of IL-5 as survival factor. Twenty μl of the substance to be studied in a precise concentration or 20 μl of the medium on its own as a control are deposited in the corresponding wells. The cellular viability and the percentage of apoptotic eosinophils are counted at 24 hrs and 48 hrs with the aid of the methods below.
Blue trypan makes it possible to evaluate cellular viability. The cellular suspension is added to an equal volume of blue trypan at 0.1% in PBS. The abso!ute number of cells excluding the blue trypan (=“living” cells) per unit volume is obtained by counting the cells in a hemocytometer (Mallassez).
Cytology: makes it possible to visualise the morphological modification of the eosinophils during apoptosis in vitro. The cellular suspension is cyto-centrifuged then the strips are coloured (kit RAL 555, Prolabo). The percentage of apoptotic cells is established by optical microscope according to their characteristic morphology (pyknotic nucleus with condensed chromatine or without a nucleus, reduction in the cells diameter, cytoplasmic condensation). The freshly isolated eosinophils from the blood circulation have a characteristic morphology in optical microscopy: a granular cytoplasm coloured red-orange by eosin and a very often bivobed nucleus. In the absence of survival factors such as IL-5, IL-3 or GM-CSF, the first morphological signs of apotosis of the eosinophils appear. The chromatin condenses and the nucleus of the eosinophil takes on a pyknotic appearance. This pyknotic appearance of the nucleus, standard in the course of apoptosis, is however rarely observed in the eosinophil, perhaps because of its brevity. Another morphological sign characteristic of apoptosis is the reduction of cellular volume which is very marked in the eosinophil (Beauvais et al, 1995, J, Leukoc. Biol. 57: 851-855). After 48 hours of incubation, the nuclear structures have disappeared in the majority of eosinophils which now appear in the form of anucleated vesicles.

[6] = −20° C., protected from light and humidity; cited from earlier work
[7] = literature in vivo studies; rats, mice, monkeys; i.v., i.p., sub-cutaneous; cited from earlier work
[8] = tested on: intestinal, splenic and hepatic hemoxygenesis; conditions: Vrema et al, 1988; p.o. 25 mg/kg; 6 hrs; new-born and adult rats; cited from earlier work
[9] = tested on: peritoneal hypereosinophilia; experiment: Ovalbumin-induced peritoneal hypereosinophilia in mice; format: in vivo, Swiss mice; conditions: 0.1 ml of 1 mM (3.1 mg/kg) intraperitoneal with ovalbumin challenge; 48 hrs; two mice
Experimental: Swiss mice (about 20 g) are immunised sub cutaneously twice (with a 6 day interval) with 100 μg of ovalbumin in 0.4 ml of a suspension at 4 mg/ml of Al(OH)3 in NaCl 0.9%. One week after the second injection, 0.2 ml of ovalbumin at 5 μg/ml of ovalbumin are administered by intraperitoneal injection. The control mice are injected with the vehicle only.
The mice are killed at different times (overdose of ether) and—after dissection —undergo a peritoneal wash with 6ml of NaCl 0.9% (heparinised). After slight massage, the liquid of the wash is collected and the cellular concentration is measured in a hemocytometer. Cytocentrifugation strips are made and coloured by the Wright colorant (kit RAL 555, Prolabo, France). The differential count of mononucleated (monocytes+macrophages+lymphocytes), eosinophil and neutrophil cells is carried out objectively×100 by immersion in oil. During the peritoneal washing of the control mice, the residual cells are essentially macrophages, whereas during the peritoneal washing of mice immunised by ovalbumin, an inflammatory infiltrate with the apparition of polynuclear eosinophils and neutrophils is observed.
The ZnPP-IX is Injected at the same time as the second injection of ovalbumin (OVA). […] The results are represented by FIGS. 4, 5 and 6. Each column represents the average for two mice at 48 hrs.

inflammation = conditions: Nagai et al, 1992; 30 mg/kg; adult rats and mice; cited from earlier work
neonatal jaundice [10] = conditions: Rodgers et al, 1990; i.v. 25 mg/kg; 26 hrs; Rhesus monkeys (new-born); cited from earlier work
cerebral ischemia = conditions: i.p. 50 mg/kg, 24 hrs, adult rats, cited from earlier work
eosinophils [11] = conditions: in vitro; cited from earlier work

C=CC1=C(C)c2cc3[n-]c(cc4[n-]c(cc5nc(cc1n2)C(C)=C5C=C)c(C)c4CCC(=O)O)c(CCC(=O)O)c3C.[Zn+2] [ZnPP-IX, Zinc-Protoporphyrin IX]
Pharmacological effects (neonatal jaundice [1]): Reduces neonatal jaundice | Pharmacological effects (phototoxicity) [2]: No phototoxic effect | Marking of apoptotic nuclei by the TUNEL method (eosinophils [3]): appear marked | Pharmacological effects (hyperbilirubinemia due to iatrogenic hemolysis) [4]: Reduces hyperbilirubinemia due to | Pharmacological effects (steroidogenesis) (steroidogenesis): No effect on steroidogenesis | Pharmacological effects (neonatal jaundice [5]): Reduces neonatal jaundice | Apoptosis of eosinophils (percentage of apoptotic eosinophils) (human eosinophils; 24 hrs): 45 ± 15 | Apoptosis of eosinophils (percentage of apoptotic eosinophils) (human eosinophils; 48 hrs): 99 ± 1 | Activity on the survival and apoptosis of the eosinophils (FIG. 2) (human eosinophils; average of two representative experiments): dosedependant activity | Induction of the apoptosis of eosinophils (human eosinophils; in stronger concentrations of IL5 (10 pM)): induces the apoptosis of eosinophils | Effect on apoptosis of the eosinophils (human eosinophils; in the absence of IL-5): accelerates the apoptosis | Number of apoptotic cells (human eosinophils; 24 hrs): very small | Number of apoptotic cells (human eosinophils; 48 hrs): practically all the cells are apoptotic | Apoptosis of eosinophils (percentage of apoptotic eosinophils) (human eosinophils; time 0): 0 | Storage stability [6]: at least 1 year | Toxicity in animals [7]: No toxicity has been reported; also recorded: No harmful effects were revealed | Pharmacological effects (inhibition of intestinal, splenic and hepatic hemoxygenesis) [8]: No inhibitory effect on intestinal, | Inflammatory infiltrate in peritoneal wash [9]: reduces the inflammatory infiltrate | Number of eosinophils in the tissues [9]: large decrease | Pharmacological effects (inflammation): Anti-inflammatory effect | Pharmacological effects (neonatal jaundice [10]): Reduces neonatal jaundice | Pharmacological effects (cerebral ischemia; Kadoya et al, 1995): Protects from cerebral ischemia | Pharmacological effects (cerebral ischemia; Zhao et al, 1996): Protects from cerebral ischemia

CCN(CC)CC(=O)Nc1c(C)cccc1C [lidocaine]
Survival of eosinophils (eosinophils [11]): reduce the survival of eosinophils

IL-5: Cytokine used as survival factor for the eosinophils in culture
Apoptosis of eosinophils (percentage of apoptotic eosinophils) (human eosinophils; 24 hrs): 2 ± 2 | Apoptosis of eosinophils (percentage of apoptotic eosinophils) (human eosinophils; 48 hrs): 2 ± 1 | Apoptosis of eosinophils (percentage of apoptotic eosinophils) (human eosinophils; time 0): 0
